Data: patent publication US20250197423A1, “RAS INHIBITORS” (Revolution Medicines, Inc., priority 2022, published 2025)

Key:
[1] = from CO[C@@H](C)c1ncccc1-c1c(CC(C)(C)CO)c2cc(C3=CCCN(C[C@H](NC(=O)OC(C)(C)C)C(=O)N4CCC[C@@H](C(=O)O)N4)C3)ccc2n1CC(F)(F)F; ester bond; 18-membered ring; EDCI/HOBt/DIEA; DCM; 12.5 mM; 25.0 °C; 16.0 h; 3 steps
[2] = test system: SW1573; settings: Canon et al. 2019; cited from earlier work

| SMILES | ring closure, isolated yield [1] [%] | sensitivity of cell line to inhibitor [2] |
| --- | --- | --- |
| CO[C@@H](C)c1ncccc1-c1c2c3cc(ccc3n1CC(F)(F)F)C1=CCCN(C1)C[C@H](NC(=O)OC(C)(C)C)C(=O)N1CCC[C@H](N1)C(=O)OCC(C)(C)C2 | 63.7 | – |
| C=CC(=O)N1CCN(c2nc(=O)n(-c3c(C)ccnc3C(C)C)c3nc(-c4c(O)cccc4F)c(F)cc23)[C@@H](C)C1 [AMG510] | – | insensitive |
